Laboratory results taken from patent US20060287233A1, “Method of use of antagonists of zonulin to prevent the loss of or to regenerate pancreatic cells” (priority 2005, published 2006).
Entries after “also recorded” stand apart in the source; their conditions may differ. Ends that are not written are not given here.

How the values were obtained:
[1] = test system: rabbit ileum; test: Tissue resistance (Rt) of rabbit ileum mounted in Ussing chambers
Method: Next, rabbit ileum mounted in Ussing chambers as described below, were exposed to 100 μg of FZI/O (SEQ ID NO:15), 100 μg of FZI/1 (SEQ ID NO:29), 1.0 μg of 6×His-ZOT (obtained as described in Example 1 of U.S. patent application Ser. No. 09/127,815, filed Aug. 3, 1998), 1.0 μg of zonulini (obtained as described in Example 3 of U.S. patent application Ser. No. 09/127,815, filed Aug. 3, 1998), or 1.0 μg of zonulinh (obtained as described in Example 3 of U.S. patent application Ser. No. 09/127,815, filed Aug. 3, 1998), alone; or pre-exposed for 20 min to 100 μg of FZI/O or FZI/1, at which time 1.0 μg of 6×His-ZOT, 1.0 μg of zonulini, or 1.0 μg of zonulinh was added. ΔRt was then calculated as Rt=PD/Isc where PD=potential difference and Isc=short circuit current.

[2] = test system: BB/Wor rats; test: Prevention of diabetes in BB/Wor rats, antagonist in drinking water; type: in vivo, rat; settings: 10 μg/ml in drinking water, n=5
Method: Both groups were maintained on a standard diet of rat chow (Harlan Teklab Diet #7012). All food and water were previously autoclaved. Each day, daily water intake was measured and 100 ml of fresh water was given. The treated group received 10 μg/ml of the zonulin peptide antagonist (SEQ ID NO: 15) supplemented in the drinking water. The rats were housed in hepa-filter cages.
Diabetes in the rats was diagnosed as follows: The rats were weighed twice a week. Blood glucose was determined weekly using the OneTouch® glucose monitoring system (Johnson & Johnson). Each week, reagent strips for urinalysis were used to monitor glucose (Diastix®) and ketones (Ketositx®) (Bayer). Rats with a blood glucose >250 mg/dl were fasted overnight, and blood glucose levels >200 mg/dl were considered diabetic.
Following clinical presentation of diabetes, the rats were sacrificed as follows: the rats were anesthesized using ketamine anesthesia and a midline incision was made allowing access to the heart. An 18 G needle was placed into the heart and death occurred by exsanguinations. Then, zonulin assays were conducted as described above. […] According to Biomedical Research Models, Inc., 80% of diabetes prone rats present with diabetes by age 80 days.

[3] = test system: pancreatic islets of BBDP rats; test: Histology and immunohistology of pancreata of BBDP rats; type: in vivo, rat; settings: treated rats that did not develop T1D; listed as AT1001
Method: Samples of the pancreas were taken from animals that had been treated starting at day […] and examined. The results of the histological examination are shown in FIG. 9 and the results of the immunohistological examination are shown in FIG. 10.
To verify the identities of the cells observed in the histological analysis, immunohistological examination was conducted. Pancreata were sequentially stained with either anti-glucagon antibody, which is specific for glucon-producing […], or with anti-insulin antibodies, which is specific for insulin-producing β-cells. When untreated pancreas is stained with anti-insulin antibodies, no signal is detected. This is consistent with the destruction of β-cells in T1D. Staining of these cells with anti-glucagon antibodies identifies glucagon producing […]. Normal islets have a loaf-shaped structure with the outside of the islet containing […] and the inside of the islet containing β-cells. […] The structure of the islets was more normal as indicated by the staining pattern with anti-glucagon antibodies FIG. 10D.

[4] = test system: BBDP rats; test: Treatment of autoimmune diabetes in BBDP rats, therapy initiated after seroconversion; type: in vivo, rat
Method: A test group of 52-54 day old diabetes-prone rats were treated with a zonulin antagonist peptide AT1001 (SEQ ID NO:15) while an age matched control group was not treated. The antagonist was administered at this time because at 40 days these rats show an increase in zonulin levels and at 50 days autoimmune antibodies can be detected. Thus, treatment was started after […].
BBDP animals age 52-54 were days divided in two groups. Group 1 (n=20) received AT-1001 daily in drinking water+HCO3. Group 2 (n=10) received drinking water+HCO3. Animals were randomized to receive either placebo or treatment with the synthetic zonulin peptide inhibitor AT-1001 (SEQ ID:15) in their water supply in a blinded fashion during treatment arm T0. At the disease endpoint (fasting blood glucose>250 mg/dl), BBDP rats that developed T1D (60% incidence in placebo group, average age 110 days) were euthanized and blood and tissue samples collected. […] Serum zonulin and autoantibody levels were monitored at the beginning of the study and at its endpoint. Water intake was monitored daily, while weight gain and serum glucose levels were checked weekly. Rats with fasting blood glucose ≧250 mg/dl were considered diabetic and were sacrificed within 24 hours of reaching the diabetic status.

Substance | inhibitory effect on the Rt change induced by ZOT, zonulini and zonulinh ([1]; pre-exposure for 20 min to 100 μg peptide) | rats that developed diabetes by age 80 days [2] [%] | treated rats that did not develop diabetes [2] [%] | change in Rt as compared to the negative control ([1]; 100 μg peptide alone) [%] | decrease of the effect of ZOT on Rt ([1]; pre-treatment for 20 min with 100 μg peptide, then 1.0 μg 6×His-ZOT) [%] | decrease of the effect of zonulinh on Rt ([1]; pre-treatment for 20 min with 100 μg peptide, then 1.0 μg zonulinh) [%] | decrease of the effect of zonulini on Rt ([1]; pre-treatment for 20 min with 100 μg peptide, then 1.0 μg zonulini) [%] | pancreas histology (haematoxylin and eosin) [3] | pancreatic islet immunohistology (insulin and glucagon staining) [3] | animals that developed diabetes under continued treatment ([4]; continued treatment after 120 days, arm T1) | anti-glutamic acid decarboxylase (GAD) antibodies ([4]; following treatment) | average age of onset of T1D ([4]; treated group) [days] | animals that progressed to T1D ([4]; treatment arm T0, in drinking water from age 52-54 days) [%] | rats that developed diabetes ([4]; treatment arm T0, treated group n=20) | progression to T1D ([4]; up to age 205 days (150 days post-treatment)) | animals that developed diabetes after treatment was withdrawn (fraction) ([4]; withdrawal after 120 days) | onset of T1D after withdrawal of treatment ([4]; withdrawal at age 120 days, arm T1) [%]
FZI/1: second synthetic peptide: Gly in position 8, Val in position 12, Gln in position 13 changed to residues of zonulinb (Val, Gly, Arg) (VGVLGRPG; sythetic peptide) [reference compound] | completely ablated | – | – | – | – | – | – | – | – | – | – | – | – | – | – | – | –
GGVLVQPG [FZI/O, synthetic octapeptide corresponding to amino acid residues 8-15 of human fetal zonulin] | – | 40 | 60 | 0.5 | 75 | 100 | 97 | evidence of the regeneration of β-cells was observed; also recorded: either normal islet histology or islet showing signs of recovery from insulitis; also recorded: perivascular inflammation without insulitis | preserved islets with detectable insulin-producing beta cells; also recorded: islets that were either undamaged (C and D) or showed signs of recovery from an insulitis insult | none | significant reduction | 86.0 ± 10.3 | 35 | 7 of 20 | significantly reduced | ⅓ | 33
